Assay [1] addresses T1, rat membrane aminopeptidase P (Rattus norvegicus, UniProt Q99MA2).
T1 sequence (Q99MA2 23-650): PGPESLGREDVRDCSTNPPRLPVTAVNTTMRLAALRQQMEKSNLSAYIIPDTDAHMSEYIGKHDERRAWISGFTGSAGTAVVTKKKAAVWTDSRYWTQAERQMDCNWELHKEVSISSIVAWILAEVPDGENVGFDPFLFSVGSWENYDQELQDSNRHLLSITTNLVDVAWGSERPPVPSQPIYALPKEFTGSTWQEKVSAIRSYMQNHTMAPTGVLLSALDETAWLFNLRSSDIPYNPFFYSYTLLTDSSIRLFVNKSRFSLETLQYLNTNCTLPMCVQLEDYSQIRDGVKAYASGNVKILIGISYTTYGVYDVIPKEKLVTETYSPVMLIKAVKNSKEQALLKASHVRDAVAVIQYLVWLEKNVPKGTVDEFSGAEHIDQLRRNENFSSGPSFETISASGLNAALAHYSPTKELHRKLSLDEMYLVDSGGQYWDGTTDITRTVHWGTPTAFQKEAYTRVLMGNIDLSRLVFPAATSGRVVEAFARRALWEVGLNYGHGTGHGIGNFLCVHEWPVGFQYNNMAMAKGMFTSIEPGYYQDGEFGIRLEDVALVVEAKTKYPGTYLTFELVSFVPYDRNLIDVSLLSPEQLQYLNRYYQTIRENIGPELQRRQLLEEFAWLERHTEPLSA
The assay is described as follows: Inhibition of purified rat membrane aminopeptidase P with Arg-Pro-Pro substrate. The assay is classed as biochemical. Here is the method: The IC50 for each of compounds IV-VIII was determined as the concentration in nmoles/liter (nM) required to inhibit rat membrane aminopeptidase P by 50% using Arg-Pro-Pro (0.5 mM) as the substrate. […] See Maggiora et al.,

A further assay relates to bradykinin degradation. Conditions: isolated perfused rat heart and lung; cited from earlier work.
In assay [2] the test system is bradykinin vasodepressor response. Conditions: cited from earlier work.
In another assay the test system is blood pressure. Conditions: rat model of severe hypertension; cited from earlier work.
The next assay concerns isolated perfused heart. Conditions: cited from earlier work.
In a further assay the test system is myocardial infarct size. Conditions: intact rats subjected to regional cardiac ischemia; cited from earlier work.
Another assay has as its system aminopeptidase P. Conditions: cited from earlier work.
Where [3] appears, read: purified rat membrane aminopeptidase P, Arg-Pro-Pro (0.5 mM) as the substrate, read-out: Binding affinity (IC50 in nanomolar).

Data on six compounds can be found in US7390789B2, “Thio-containing inhibitors of aminopeptidase P, and compositions thereof” (priority 2005, dated 2008).

Like-named read-outs stand apart in the source and are kept apart here.

One may read the IC50 as the concentration that gives 50% inhibition.

In the case of `O=C(O)CCNC(=O)[C@@H]1CCCN1C(=O)[C@@H]1CCCN1C(=O)[C@@H](S)C1CCCCC1` [Analog 4, N-[(S)-2-mercapto-2-cyclohexylacetyl]-Pro-Pro-β-Ala-OH], the IC50 in assay [1] (setting [3]) came out at 87 nM.

Consider `C[C@H](NC(=O)[C@@H]1CCCN1C(=O)[C@@H]1CCCN1C(=O)[C@@H](O)[C@H](N)Cc1ccccc1)C(N)=O` [apstatin], for which the bradykinin degradation entry with bradykinin degradation was “reduce bradykinin degradation”. For the same compound, the “effect on blood pressure-lowering effects of intravenously administered bradykinin” value in assay [2] (rat, in vivo, iv) is reported as “enhanced”. The “dose at which bradykinin potentiation has been observed” value in assay [2] (rats, intravenously, administered over a one hour period) was 0.08 to 0.8 mg/kg. Besides, the “blood pressure reduction with an ACE inhibitor” value in the assay with blood pressure is reported as “acted synergistically with an ACE inhibitor to reduce blood pressure to normal”. The “reduction of reperfusion-induced ventricular fibrillation” value in the assay on isolated perfused heart is reported as “by a similar amount”. The “reduction of cardiac damage” value in the assay on isolated perfused heart (heart attack model) is listed as 74%. The myocardial infarct size result in the assay with myocardial infarct size is recorded as “substantially reduced myocardial infarct size”. Besides, in the assay with aminopeptidase P, the potency result is listed as “micromolar”.

Turning to `CC(NC(=O)C1CCCN1C(=O)C1CCCN1C(=O)CS)C(N)=O` (stereo not drawn) [Analog 1, N-mercaptoacetyl-Pro-Pro-Ala-NH2], the IC50 in assay [1] (rat mAPP, read-out: IC50) came to 3400 nM.

`CCC(C)C(S)C(=O)N1CCCC1C(=O)N1CCCC1C(=O)NC(C)C(N)=O` [Analog 5, N-[(2S, 3S)-2-mercapto-3-methylpentanoyl]-Pro-Pro-Ala-NH2]: the IC50 in assay [1] (setting [3]) worked out at 10 nM.

As to `CCCCC(S)C(=O)N1CCCC1C(=O)N1CCCC1C(=O)NC(C)C(N)=O` [Analog 2, N-[(R)-2-mercaptohexanoyl]-Pro-Pro-Ala-NH2], the 50% inhibitory concentration (IC50) in assay [1] (setting [3]) worked out at 130 nM.

In the case of `CCCCC(S)C(=O)N1CCCC1C(=O)N1C(C)CCC1C(=O)NC(C)C(N)=O` [Analog 3, N-[(R)-2-mercaptohexanoyl]-Pro-MePro-Ala-NH2], the half-inhibitory concentration (IC50) in assay [1] (setting [3]) worked out at 170 nM.
